According to US20250049929A1, “NOVEL TETRAHYDROQUINOLINES AND PROTEOLYSIS TARGETING CHIMERA (PROTACS) COMPRISING THEM AS DEGRADERS OF SMARCA” (Boehringer Ingelheim International GmbH, priority 2021, published 2025):

Experiments:
[1] = molecular target: T1, SMARCA2 (Homo sapiens, UniProt P51531); test: SMARCA2 degradation analysis by imaging in RKO cells (DC50 A2); assay type: cell-based; details: tables 69, 70, 73, 76-78
T1 construct: endogenous in cells; host or cells: RKO cells (CRL-2577, ATCC)
Description: (§1) Determination of SMARCA2 and SMARCA4 Degradation (DC50 A2 and A4 [nM])
(§2) Protein Degradation Assays for SMARCA2 and SMARCA4
(§3) For degradation analysis by imaging, 1250 RKO cells (CRL-2577, ATCC) per well were seeded into 60 μL DMEM (Sigma Aldrich) supplemented with 10% FBS (Hyclone) in 384-well flat bottom plates (CellCarrier Ultra, Perkin Elmer) and incubated at 37° C. and 5% CO2 in a humidified atmosphere overnight. Compounds were added the next day using an Access Labcyte Workstation with a Labcyte Echo 550 or 555 acoustic dispenser and incubated with the cells for 4 or 24 h. Cells were fixed by adding 25 μL fixation buffer (7.4% formaldehyde (Sigma Aldrich F8775), 0.2% Triton TX100 (Sigma Aldrich F93443) in PBS) for 15 minutes at room temperature. After aspirating the fixing solution, the cells were washed once with 25 μL PBS and 25 μL of Blocking Buffer (10% Goat Serum in PBS) were added to each well and incubated for 30 minutes. Cells were washed with PBS and incubated with 20 μL mouse anti-Smarca4 (BRG1) antibody (Cell Signaling #52251) or rabbit anti-Smarca2 (BRM) antibody (Sigma Aldrich HPA029981) in blocking solution (PBS with 10% FCS) for ca. 2-4 h at RT. For detection of the nuclei, 25 μL of 5 μg/mL Hoechst 33342 (stock 10 mg/mL in H2O; Invitrogen H1399) were added together with Alexa Fluor 647 goat anti-mouse IgG (Invitrogen A-21235) or Alexa Fluor 488 goat anti-rabbit IgG (Invitrogen A-11034) in blocking solution and incubated for 60 min at RT. The cell layer was washed with 25 μL PBS, the wells were filled with 25 μL PBS and the plates sealed with an adhesive sheet. The mean intensity at 488 or 647 nm in the nucleus was measured using an Opera Phenix Plus High-Content Screening System (Perkin Elmer), values were normalized to the background and DMSO control and DC50 values were calculated and analyzed using a four-parametric logistic model.

[2] = molecular target: T2, SMARCA4 (Homo sapiens, UniProt P51532); test: SMARCA4 degradation analysis by imaging in RKO cells (DC50 A4); assay type: cell-based; details: tables 69, 70, 73, 76-78
T2 construct: endogenous in cells; host or cells: RKO cells (CRL-2577, ATCC)
Description: as §1, §2, §3

T1 sequence (P51531 whole entry): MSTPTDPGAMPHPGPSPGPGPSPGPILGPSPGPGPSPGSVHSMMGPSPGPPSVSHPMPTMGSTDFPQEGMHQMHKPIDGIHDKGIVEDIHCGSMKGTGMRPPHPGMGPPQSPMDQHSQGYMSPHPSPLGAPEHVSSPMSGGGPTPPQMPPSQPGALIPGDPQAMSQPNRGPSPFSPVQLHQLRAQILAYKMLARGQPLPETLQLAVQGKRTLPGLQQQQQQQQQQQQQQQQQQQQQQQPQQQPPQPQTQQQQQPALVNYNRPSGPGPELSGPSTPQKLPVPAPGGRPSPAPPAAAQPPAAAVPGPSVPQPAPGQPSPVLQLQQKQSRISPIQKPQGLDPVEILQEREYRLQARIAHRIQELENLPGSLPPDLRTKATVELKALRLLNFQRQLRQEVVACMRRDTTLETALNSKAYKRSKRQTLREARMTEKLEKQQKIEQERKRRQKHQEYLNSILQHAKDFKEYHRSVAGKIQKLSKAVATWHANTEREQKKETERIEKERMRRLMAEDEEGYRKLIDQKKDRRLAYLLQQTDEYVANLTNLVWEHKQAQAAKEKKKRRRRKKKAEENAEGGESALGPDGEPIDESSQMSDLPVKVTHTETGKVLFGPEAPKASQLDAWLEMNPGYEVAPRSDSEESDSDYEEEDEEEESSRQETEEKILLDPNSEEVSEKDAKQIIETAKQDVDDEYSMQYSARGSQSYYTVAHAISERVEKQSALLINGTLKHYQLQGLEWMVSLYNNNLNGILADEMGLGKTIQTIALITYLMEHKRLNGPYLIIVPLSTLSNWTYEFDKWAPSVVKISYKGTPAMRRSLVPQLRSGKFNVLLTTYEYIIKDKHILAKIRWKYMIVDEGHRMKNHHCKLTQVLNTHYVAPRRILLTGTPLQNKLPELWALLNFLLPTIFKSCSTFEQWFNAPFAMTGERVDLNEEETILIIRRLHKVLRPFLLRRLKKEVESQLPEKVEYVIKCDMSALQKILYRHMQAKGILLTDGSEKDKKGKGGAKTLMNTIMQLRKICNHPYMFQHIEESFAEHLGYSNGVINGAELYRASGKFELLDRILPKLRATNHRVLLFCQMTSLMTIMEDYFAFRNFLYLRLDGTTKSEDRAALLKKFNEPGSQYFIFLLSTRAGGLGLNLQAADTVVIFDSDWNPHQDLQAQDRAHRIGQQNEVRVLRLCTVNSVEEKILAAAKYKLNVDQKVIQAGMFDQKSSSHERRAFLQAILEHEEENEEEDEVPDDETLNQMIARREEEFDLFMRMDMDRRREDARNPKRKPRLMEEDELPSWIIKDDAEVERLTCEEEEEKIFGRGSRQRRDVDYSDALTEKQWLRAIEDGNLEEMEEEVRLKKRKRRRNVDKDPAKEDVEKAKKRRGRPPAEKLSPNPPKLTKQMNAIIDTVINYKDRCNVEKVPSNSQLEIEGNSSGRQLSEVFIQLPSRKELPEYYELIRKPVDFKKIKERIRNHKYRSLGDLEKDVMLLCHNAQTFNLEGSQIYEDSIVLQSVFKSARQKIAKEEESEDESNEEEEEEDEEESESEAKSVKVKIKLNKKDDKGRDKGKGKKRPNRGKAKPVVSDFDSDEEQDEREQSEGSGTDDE
T2 sequence (P51532 whole entry): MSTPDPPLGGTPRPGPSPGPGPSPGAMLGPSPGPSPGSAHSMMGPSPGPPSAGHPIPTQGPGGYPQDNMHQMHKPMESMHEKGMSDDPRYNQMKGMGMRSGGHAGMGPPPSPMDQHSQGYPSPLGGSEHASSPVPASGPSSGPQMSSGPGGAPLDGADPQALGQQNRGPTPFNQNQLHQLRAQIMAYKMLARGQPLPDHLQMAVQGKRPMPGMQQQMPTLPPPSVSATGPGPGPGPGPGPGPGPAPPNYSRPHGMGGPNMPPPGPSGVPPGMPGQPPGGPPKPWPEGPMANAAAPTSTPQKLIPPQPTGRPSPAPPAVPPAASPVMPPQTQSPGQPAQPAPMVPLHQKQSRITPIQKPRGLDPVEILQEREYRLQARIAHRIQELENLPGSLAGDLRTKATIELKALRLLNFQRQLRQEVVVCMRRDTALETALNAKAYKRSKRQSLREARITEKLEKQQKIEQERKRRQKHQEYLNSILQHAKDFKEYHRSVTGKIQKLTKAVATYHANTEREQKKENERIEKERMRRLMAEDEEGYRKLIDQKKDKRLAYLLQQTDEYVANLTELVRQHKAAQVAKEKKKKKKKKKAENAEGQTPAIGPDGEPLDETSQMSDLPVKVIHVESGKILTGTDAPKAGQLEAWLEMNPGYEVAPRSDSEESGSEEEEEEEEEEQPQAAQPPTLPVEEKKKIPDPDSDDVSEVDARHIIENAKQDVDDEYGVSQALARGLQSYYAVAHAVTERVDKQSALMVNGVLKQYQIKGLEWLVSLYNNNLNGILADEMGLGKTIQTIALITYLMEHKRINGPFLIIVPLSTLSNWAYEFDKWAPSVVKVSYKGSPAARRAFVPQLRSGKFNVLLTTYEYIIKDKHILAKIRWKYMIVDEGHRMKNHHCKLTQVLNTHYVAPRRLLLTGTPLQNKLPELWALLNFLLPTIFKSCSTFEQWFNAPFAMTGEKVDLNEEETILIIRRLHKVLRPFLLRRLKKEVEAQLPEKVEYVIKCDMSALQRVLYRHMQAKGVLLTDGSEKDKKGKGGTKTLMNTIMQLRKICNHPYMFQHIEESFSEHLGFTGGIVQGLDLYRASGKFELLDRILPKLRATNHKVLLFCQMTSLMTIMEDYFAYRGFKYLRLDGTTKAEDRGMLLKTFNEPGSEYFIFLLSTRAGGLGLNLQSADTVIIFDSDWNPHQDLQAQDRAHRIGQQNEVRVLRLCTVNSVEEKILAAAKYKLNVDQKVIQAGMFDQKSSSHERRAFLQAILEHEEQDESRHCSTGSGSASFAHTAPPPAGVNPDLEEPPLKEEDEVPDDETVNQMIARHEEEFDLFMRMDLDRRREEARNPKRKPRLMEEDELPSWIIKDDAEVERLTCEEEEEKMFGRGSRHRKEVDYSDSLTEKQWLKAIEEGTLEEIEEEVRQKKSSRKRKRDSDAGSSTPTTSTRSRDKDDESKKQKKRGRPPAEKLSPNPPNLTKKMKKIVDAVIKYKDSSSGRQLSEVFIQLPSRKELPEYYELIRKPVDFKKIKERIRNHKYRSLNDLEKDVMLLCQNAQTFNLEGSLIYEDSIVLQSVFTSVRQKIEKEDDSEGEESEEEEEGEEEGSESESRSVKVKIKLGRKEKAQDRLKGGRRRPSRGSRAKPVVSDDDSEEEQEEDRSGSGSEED

Row | SMILES | DC50 [1] | DC50 [2]
1 | Cc1ncsc1-c1ccc([C@H](COCCN2CCC(c3ccc4c(c3)n(C3CCCC3)c3nc(=O)c5c(Br)cccc5n43)CC2)NC(=O)[C@@H]2C[C@@H](O)CN2C(=O)[C@@H](NC(=O)C2(C3CC3)CC2)C(C)(C)C)cc1 [Compound 42bd] | 11 nM | 64 nM
2 | Cc1ncsc1-c1ccc([C@H](COCCN2CCC(c3ccc4c(c3)n(C3CCCC3)c3nc(=O)c5c(Br)cccc5n43)CC2)NC(=O)[C@@H]2C[C@@H](O)CN2C(=O)[C@@H](NC(=O)C2(C#N)CC2)C(C)(C)C)cc1 [Compound 42be] | 12 nM | 67 nM
3 | COC(=O)C1(C(=O)N[C@H](C(=O)N2C[C@H](O)C[C@H]2C(=O)N[C@@H](COCCN2CCC(c3ccc4c(c3)n(C3CCCC3)c3nc(=O)c5c(Br)cccc5n43)CC2)c2ccc(-c3scnc3C)cc2)C(C)(C)C)CC1 [Compound 42bf] | 8 nM | 87 nM
4 | Cc1ncsc1-c1ccc([C@H](COCCN2CCC(c3ccc4c(c3)n(C3CCCC3)c3nc(=O)c5c(Br)cccc5n43)CC2)NC(=O)[C@@H]2C[C@@H](O)CN2C(=O)[C@@H](NC(=O)C23CCCCC2C3)C(C)(C)C)cc1 (stereo partly shown) [Compound 42bh] | 6 nM | 153 nM
5 | Cc1ncsc1-c1ccc([C@H](CCCN2CCC(c3ccc4c(c3)n(C3CCCC3)c3nc(=O)c5c(N)cccc5n43)CC2)NC(=O)[C@@H]2C[C@@H](O)CN2C(=O)[C@@H](NC(=O)C2(N3CCCC3)CC2)C(C)(C)C)cc1 [Compound 42bi] | 3 nM | 6 nM
6 | CC(=O)O[C@@H]1C[C@@H](C(=O)N[C@@H](CCCCCN2CCC(c3ccc4c(c3)n(C3CCCC3)c3nc(=O)c5c(Br)cccc5n43)CC2)c2ccc(-c3scnc3C)cc2)N(C(=O)[C@@H](NC(=O)C2(F)CC2)C(C)(C)C)C1 [Compound 42bj] | 8 nM | 83 nM
7 | CCCCC(=O)O[C@@H]1C[C@@H](C(=O)N[C@@H](CC[C@H](C)CCN2CCC(c3ccc4c(c3)n(C3CCCC3)c3nc(=O)c5c(Br)cccc5n43)CC2)c2ccc(-c3scnc3C)cc2)N(C(=O)[C@@H](NC(=O)C2(F)CC2)C(C)(C)C)C1 [Compound 42bk] | 3 nM | 60 nM
8 | Cc1ncsc1-c1ccc([C@H](CCCCCN2CCC(c3ccc4c(c3)n(C3CCCC3)c3nc(=O)c5c(Br)cccc5n43)CC2)NC(=O)[C@@H]2C[C@@H](O)CN2C(=O)[C@@H](NC(=O)C2(F)CC2)C(C)(C)C2CC2)cc1 [Compound 42c] | 0.7 nM | 11 nM
9 | Cc1ncsc1-c1ccc([C@H](CC[C@@H](C)CCN2CCC(c3ccc4c(c3)n(C3CCCC3)c3nc(=O)c5c(Br)cccc5n43)CC2)NC(=O)[C@@H]2C[C@@H](O)CN2C(=O)[C@@H](NC(=O)C2(F)CC2)C(C)(C)C)cc1 [Compound 42d] | 0.7 nM | 7 nM
10 | Cc1ncsc1-c1ccc([C@H](CCC(O)CCN2CCC(c3ccc4c(c3)n(C3CCCC3)c3nc(=O)c5c(Br)cccc5n43)CC2)NC(=O)[C@@H]2C[C@@H](O)CN2C(=O)[C@@H](NC(=O)C2(F)CC2)C(C)(C)C)cc1 (stereo partly shown) [Compound 42e] | 4.1 nM | 80 nM
11 | Cc1ncsc1-c1ccc([C@H](CCCCCN2CCC(c3ccc4c(c3)n([C@H]3CC[C@@H](O)C3)c3nc(=O)c5c(Br)cccc5n43)CC2)NC(=O)[C@@H]2C[C@@H](O)CN2C(=O)[C@@H](NC(=O)C2(F)CC2)C(C)(C)C)cc1 [Compound 42f] | 2 nM | 46 nM
12 | Cc1ncsc1-c1ccc([C@H](CCC(C)(C)CCN2CCC(c3ccc4c(c3)n(C3CCCC3)c3nc(=O)c5c(Br)cccc5n43)CC2)NC(=O)[C@@H]2C[C@@H](O)CN2C(=O)[C@@H](NC(=O)C2(F)CC2)C(C)(C)C)cc1 [Compound 42g] | 3 nM | 40 nM
13 | Cc1ncsc1-c1ccc([C@H](CCCCCN2CCC(c3ccc4c(c3)n(C3CCCC3)c3nc(=O)c5c(Br)cccc5n43)CC2)NC(=O)[C@@H]2C[C@@H](O)CN2C(=O)[C@@H](NC(=O)C2(F)CC2)C(C)(C)C)cc1 [Compound 42h] | 0.3 nM | 4 nM
14 | Cc1ncsc1-c1ccc([C@H](COC(C)(C)CN2CCCN(c3ccc4c(c3)n(C3CCCC3)c3nc(=O)c5c(Br)cccc5n43)CC2)NC(=O)[C@@H]2C[C@@H](O)CN2C(=O)[C@@H](NC(=O)C2(F)CC2)C(C)(C)C)cc1 [Compound 42i] | 9 nM | 24 nM
15 | CCC(C)(C)[C@H](NC(=O)C1(F)CC1)C(=O)N1C[C@H](O)C[C@H]1C(=O)N[C@@H](COC(C)(C)CN1CCN(c2ccc3c(c2)n(C2CCCC2)c2nc(=O)c4c(Br)cccc4n32)CC1)c1ccc(-c2scnc2C)cc1 [Compound 42j] | 4 nM | > 833 nM
16 | Cc1ncsc1-c1ccc([C@H](COC(C)(C)CN2CCC(c3ccc4c(c3)n(C3CCCC3)c3nc(=O)c5c(Br)cccc5n43)CC2)NC(=O)[C@@H]2C[C@@H](O)CN2C(=O)[C@@H](NC(=O)C2(F)CC2)C(C)(C)C)cc1 [Compound 42l] | 3 nM | > 833 nM
17 | Cc1ncsc1-c1ccc([C@H](CO[C@H](C)CN2CCC(c3ccc4c(c3)n(C3CCCC3)c3nc(=O)c5c(Br)cccc5n43)CC2)NC(=O)[C@@H]2C[C@@H](O)CN2C(=O)[C@@H](NC(=O)C2(F)CC2)C(C)(C)C)cc1 [Compound 42m] | 4 nM | > 833 nM
18 | Cc1ncsc1-c1ccc([C@H](COC(C)(C)CN2CCC(c3ccc4c(c3)n(C3CCCC3)c3nc(=O)c5c(Br)cccc5n43)CC2)NC(=O)[C@@H]2C[C@@H](O)CN2C(=O)[C@@H](NC(=O)C2(F)CC2)C2(C)CCCC2)cc1 [Compound 42n] | 3 nM | 800 nM
19 | Cc1ncsc1-c1ccc([C@H](COCCN2CCC(c3ccc4c(c3)n(C3CCCC3)c3nc(=O)c5c(Br)cccc5n43)CC2)NC(=O)[C@@H]2C[C@@H](O)CN2C(=O)[C@@H](NC(=O)C2(F)CC2)C(C)(C)C)cc1 [Compound 42o] | 5 nM | 90 nM
20 | Cc1ncsc1-c1ccc([C@H](CO[C@H](C)CN2CCC(c3ccc4c(c3)n(C3C[C@H](C)[C@@H](C)C3)c3nc(=O)c5c(Br)cccc5n43)CC2)NC(=O)[C@@H]2C[C@@H](O)CN2C(=O)[C@@H](NC(=O)C2(F)CC2)C(C)(C)C)cc1 [Compound 42p] | 13 nM | > 833 nM
21 | Cc1ncsc1-c1ccc([C@H](CCCN2CCC(c3ccc4c(c3)n(C3CCCC3)c3nc(=O)c5c(Br)cccc5n43)CC2)NC(=O)[C@@H]2C[C@@H](O)CN2C(=O)[C@@H](NC(=O)C2(F)CC2)C(C)(C)C)cc1 [Compound 42q] | 0.4 nM | 1 nM
22 | Cc1ncsc1-c1ccc([C@H](CO[C@H](C)CN2CCC(c3ccc4c(c3)n(C3CCCC3)c3nc(=O)c5c(Cl)cccc5n43)CC2)NC(=O)[C@@H]2C[C@@H](O)CN2C(=O)[C@@H](NC(=O)C2(F)CC2)C23CC4CC(CC(C4)C2)C3)cc1 [Compound 42r] | 2 nM | 27 nM
23 | Cc1ncsc1-c1ccc([C@H](COCCCCCN2CCC(c3ccc4c(c3)n(C3CCCC3)c3nc(=O)c5c(Br)cccc5n43)CC2)NC(=O)[C@@H]2C[C@@H](O)CN2C(=O)[C@@H](NC(=O)C2(F)CC2)C(C)(C)C)cc1 [Compound 42s] | 0.7 nM | 8 nM
24 | Cc1ncsc1-c1ccc([C@H](COCCN2CCC(c3cc4c(cc3OC[C@@H]3CCCO3)n3c5cccc(Br)c5c(=O)nc3n4C3CCCC3)CC2)NC(=O)[C@@H]2C[C@@H](O)CN2C(=O)[C@@H](NC(=O)C2(F)CC2)C(C)(C)C)cc1 [Compound 42t] | 3 nM | 67 nM
25 | Cc1ncsc1-c1ccc([C@H](C[C@@H](C)CN2CCC(c3ccc4c(c3)n(C3CCCC3)c3nc(=O)c5c(Br)cccc5n43)CC2)NC(=O)[C@@H]2C[C@@H](O)CN2C(=O)[C@@H](NC(=O)C2(F)CC2)C(C)(C)C)cc1 [Compound 42u] | 0.3 nM | 0.7 nM
26 | Cc1ncsc1-c1ccc([C@H](CO[C@@H](CN2CCC(c3ccc4c(c3)n(C3CCCC3)c3nc(=O)c5c(Br)cccc5n43)CC2)C2CC2)NC(=O)[C@@H]2C[C@@H](O)CN2C(=O)[C@@H](NC(=O)C2(F)CC2)C(C)(C)C)cc1 [Compound 42v] | 11 nM | > 833 nM
27 | CCOC(=O)c1ncsc1-c1ccc([C@H](CCCN2CCC(c3ccc4c(c3)n(C3CCCC3)c3nc(=O)c5c(Br)cccc5n43)CC2)NC(=O)[C@@H]2C[C@@H](O)CN2C(=O)[C@@H](NC(=O)C2(F)CC2)C(C)(C)C)cc1 [Compound 42w] | 11 nM | 36 nM
28 | Cc1ncsc1-c1ccc([C@H](CCCN2CCC(c3ccc4c(c3)n(C3CCCC3)c3nc(=O)c5c(N)cccc5n43)CC2)NC(=O)[C@@H]2C[C@@H](O)CN2C(=O)[C@@H](NC(=O)C2(F)CC2)C(C)(C)C)cc1 [Compound 42x] | 0.3 nM | 2 nM
29 | Cc1ncsc1-c1ccc([C@H](CO[C@H](C)CN2CCC(c3ccc4c(c3)n(C3CCCC3)c3nc(=O)c5c(Br)cccc5n43)CC2)NC(=O)[C@@H]2C[C@@H](O)CN2C(=O)[C@@H](NC(=O)C2(N(C)C)CC2)C(C)(C)C)cc1 [Compound 42y] | 6 nM | 101 nM
